pEC50: −log10 of the molar value. Values joined by “and” are separate entries in the source; they are usually repeats but may differ in a detail not shown here. Identical values can stand only once. “Also recorded” adds a separate entry of the source.
How the values were obtained:
[1] = Cytotoxicity (EZ-Cytox WST) in LLC-MK2 cells; assay type: cell-based; conditions: rhesus monkey, 72 h exposure
Description: (§1) Cells were seeded at 2 × 10^4 cells per well in 96-well plates and, after overnight attachment, exposed to test compounds for 72 h in maintenance medium. The final DMSO concentration was ≤0.1% (v/v) for all conditions, including vehicle controls. Cell viability was quantified using EZ-Cytox WST reagent (DoGenBio, Seoul, Republic of Korea) according to the manufacturer’s instructions; absorbance was read at 450 nm on a SpectraMax i3x microplate reader (Molecular Devices, San Jose, CA, USA). Viability for each well was normalized to the mean of vehicle-treated (mock) controls on the same plate and expressed as percent viability. Each condition included technical replicates (n = 3) per experiment. Concentration–response data from ≥3 independent experiments were fit to a four-parameter logistic (4PL) model in GraphPad Prism 10.1.2 (GraphPad Software, San Diego, CA, USA) (log10-transformed concentrations; bottom and top unconstrained).

[2] = tested on: HCoV-OC43; test: Time-of-addition, CPE reduction in MRC-5 cells, HCoV-OC43; assay type: cell-based, Human coronavirus OC43; conditions: HCoV-OC43, MRC-5 cells, 48 h
Description: (§2) For antiviral activity, cells in 96-well plates were infected and treated with test compounds as indicated and incubated for 48–72 h. Cell viability was quantified by WST (EZ-Cytox) at 450 nm on the same reader. Cytoprotective effect was calculated by normalizing to infected DMSO controls and converting to percent protection: % Protection = ((V_drug + virus − V_virus-only)/(V_mock − V_virus-only)) × 100.
(§3) For HCoV-OC43, TOA was assessed by CPE reduction in MRC-5 cells and by TCID50 on Vero E6 (no IFA collected).
(§4) Figure S14. Time-of-addition (TOA) analysis of KB-2777 against HCoV-NL63 (48 h). (a) CPE-reduction assay. KB-2777 was applied at 20 µM (blue) or 5 µM (red) under the indicated TOA conditions (Full, Pre, Co, Post, DMSO).
Cell protection (%) was calculated relative to the DMSO control. Bars show mean ± SD (n = 3). […] (b) Infectious progeny released under the same TOA conditions, quantified as log10(TCID₅₀/mL) from culture supernatants (see Methods). […]
(§5) Figure S15. […] Cell protection (%) was calculated relative to the DMSO control. […]
(§6) Statistics: one-way ANOVA with Dunnett’s multiple comparisons vs DMSO; *P<0.05, **P<0.01, ***P<0.001, ****P<0.0001. (b) Infectious progeny released under the same TOA conditions, quantified as log₁₀(TCID₅₀/mL) from culture supernatants by endpoint dilution on Vero E6 indicator cells (Spearman–Kärber method; see Methods). […]

[3] = tested on: mock-infected cells (LLC-MK2, Vero E6); test: EZ-Cytox WST cell viability in mock-infected cells under the same dosing as RT-qPCR; assay type: cell-based; conditions: tested concentration range (≤25 µM)
Description: as §1
We advanced KB-2777, the series member with the highest selectivity index (SI), to evaluate antiviral activity against α-coronaviruses (HCoV-NL63, PEDV) and a β-coronavirus (HCoV-OC43) by RT-qPCR. […] Representative cytopathic effect (CPE) micrographs (KB-2777 20 µM vs. virus-only) for HCoV-NL63, HCoV-OC43, and PEDV are provided in the Supplementary Information (Figure S16).

[4] = tested on: HCoV-NL63; test: Primary antiviral screening (virus inhibition) in HCoV-NL63-infected LLC-MK2 cells; assay type: cell-based, Human coronavirus NL63
Description: as §2
We screened 11 oxazole-4-carboxamide derivatives (Figure 1) against HCoV-NL63 in LLC-MK2 cells and quantified antiviral activity and cytotoxicity (Figure 2). Several derivatives inhibited NL63 with distinct selectivity profiles. […] Visible crystals or precipitates formed at ≥50 µM without loss of viability or morphological change; therefore, downstream assays were performed at ≤25 µM.

[5] = tested on: HCoV-NL63; test: Time-of-addition, CPE-based cell protection (EZ-Cytox), HCoV-NL63/LLC-MK2; parameters: species or system Human coronavirus NL63; conditions: HCoV-NL63, 5 µM and 20 µM, 48 h post-infection
Description: as §2, with “100. […]” for “100.”
Unless otherwise specified, infections were carried out at 100 TCID50 per well with 1 h adsorption at 37 °C, and compounds were used at 20 µM. Primary readout was S protein IFA at 48 h; EZ-Cytox and TCID50 at 48 h for the same regimens are provided in Supplementary Data (Figures S14 and S15). […]
(§7) Cell protection (%) was calculated relative to the DMSO control. […] (b) Infectious progeny released under the same TOA conditions, quantified as log10(TCID₅₀/mL) from culture supernatants (see Methods). […]
as §5, §6

[6] = tested on: HCoV-OC43; test: Extracellular viral RNA by RT-qPCR of supernatants, HCoV-OC43/Vero E6; assay type: cell-based, Human coronavirus OC43; conditions: Betacoronavirus 1, Vero C1008; HCoV-OC43/Vero E6, 72 h post-infection, n = 3
Description: At 72 h post-infection, 100–200 μL of culture supernatant was collected. Viral RNA was extracted using the QIAamp Viral RNA Mini Kit (Qiagen, Hilden, Germany)according to the manufacturer’s instructions and quantified by one-step RT-qPCR on a real-time thermocycler.
EC50 values were determined from concentration–response curves generated by 2-fold serial dilutions, with at least four concentration points per curve. Each measurement was performed in triplicate technical replicates. Unless otherwise indicated, data are presented as mean ± SEM from three independent biological experiments (n = 3).
For absolute quantification, synthetic DNA (oligonucleotide) standards corresponding to the NL63, OC43, and PEDV amplicons were used. Ten-fold serial dilutions were prepared to generate standard curves. Ct values were interpolated against the curves to obtain gene copies per reaction and converted to genome copies per mL by accounting for extraction and elution volumes and the qPCR input volume.

[7] = tested on: HCoV-OC43; test: Time-of-addition, TCID50 on Vero E6, HCoV-OC43; assay type: cell-based, Human coronavirus OC43; conditions: HCoV-OC43, titrated on Vero E6, 48 h
Description: HCoV-OC43 (KBPV-VR-8), HCoV-NL63 (KBPV-VR-88), and PEDV DR13 (originally described in [20]) were used. HCoV-NL63 was propagated in LLC-MK2 cells, and HCoV-OC43 and PEDV DR13 were propagated in Vero E6 cells. Virus-containing supernatants were clarified (2000× g, 10 min, 4 °C), aliquoted, and stored at −80 °C. Infectious titers (TCID50/mL) were determined on the corresponding host cell lines by the Spearman–Kärber method with back-titrations included in each experiment.
as §3, §4, §7, §5, §6

SMILES: COc1cccc(-c2oc(-c3ccc(C(F)(F)F)cc3)nc2C(=O)NCC2CC2)c1 [KB-2777, N-(cyclopropylmethyl)-5-(3-methoxyphenyl)-2-(4-(trifluoromethyl)phenyl)Oxazole-4-Carboxamide]
- CC50 at 72 h [1]: > 50 µM
- CPE reduction across TOA regimens [2]: greatest antiviral effect with full exposure, intermediate activity with pre- and post-treatment, and little or no effect with co-treatment
- cytotoxicity in mock-infected cells [3]: without cytotoxicity; also recorded: no overt cytotoxicity
- SI (=CC50/EC50) ([4]; HCoV-NL63/LLC-MK2): > 8 and >8.28
- pEC50 ([4]; Human coronavirus NL63, LLC-MK2, HCoV-NL63/LLC-MK2, primary screen, read-out: EC50): 5.22
- CPE-based cell protection across TOA regimens [5]: reproduced this pattern
- pEC50 [6]: 5.74
- TCID50 across TOA regimens [7]: greatest antiviral effect with full exposure, intermediate activity with pre- and post-treatment, and little or no effect with co-treatment
